Results from ChEMBL document CHEMBL1201862, “PubChem BioAssay data set” (2004).
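Following 48 hours of exposure in 96-well plates, responses at five concentrations were used to interpolate endpoints linearly. Abbreviation: GI50, concentration required for 50% inhibition of growth.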 Active and inactive are the calls of the source. Rule as the data show it: active = GI50 up to about 1.1 µM and inactive = higher.

Experiments:
Assay in all cases: NCI tumour cell line growth inhibition, 48 h
A549 = tested on: A549
IGROV-1 = tested on: IGROV-1
MCF7 = tested on: MCF7
MDA-MB-435 = tested on: MDA-MB-435
MOLT-4 = tested on: MOLT-4
NCI-H226 = tested on: NCI-H226
NCI-H522 = tested on: NCI-H522
NCI/ADR-RES = tested on: NCI/ADR-RES
OVCAR-4 = tested on: OVCAR-4
RPMI-8226 = tested on: RPMI-8226
RXF 393 = tested on: RXF 393
SF-539 = tested on: SF-539
SK-MEL-5 = tested on: SK-MEL-5
SR = tested on: SR
TK-10 = tested on: TK-10
U-251 = tested on: U-251
UACC-257 = tested on: UACC-257
UACC-62 = tested on: UACC-62
HOP-62 = tested on: HOP-62
SK-OV-3 = tested on: SK-OV-3

SMILES	GI50 (A549)	GI50 (IGROV-1)	GI50 (MCF7)	GI50 (MDA-MB-435)	GI50 (MOLT-4)	GI50 (NCI-H226)	GI50 (NCI-H522)	GI50 (NCI/ADR-RES)	GI50 (OVCAR-4)	GI50 (RPMI-8226)	GI50 (RXF 393)	GI50 (SF-539)	GI50 (SK-MEL-5)	GI50 (SR)	GI50 (TK-10)	GI50 (U-251)	GI50 (UACC-257)	GI50 (UACC-62)	GI50 (HOP-62)	GI50 (SK-OV-3)
O=C1C(Cl)C2(CC(/C=C/c3ccccc3O)=NN2c2cccc(S(=O)(=O)O)c2)N1c1nc2ccccc2s1 (centres undefined)	23.7 µM (inactive)	14.9 µM (inactive)	15.4 µM (inactive)	15.1 µM (inactive)	17.1 µM (inactive)	18.9 µM (inactive)	3.57 µM (inactive)	36.1 µM (inactive)	13.4 µM (inactive)	12.1 µM (inactive)	37.6 µM (inactive)	16.9 µM (inactive)	12.1 µM (inactive)	15.3 µM (inactive)	12.3 µM (inactive)	16.7 µM (inactive)	16.1 µM (inactive)	15.2 µM (inactive)		
COc1cccc2c1C(=O)c1ccc3cc(CCl)cc(O)c3c1C2=O	0.414 µM (active)	1.03 µM (active)	0.289 µM (active)	0.198 µM (active)	0.238 µM (active)	0.869 µM (active)	0.552 µM (active)	0.353 µM (active)		0.182 µM (active)	0.244 µM (active)	0.272 µM (active)	0.364 µM (active)	0.04 µM (active)	0.238 µM (active)	0.366 µM (active)	0.269 µM (active)	0.202 µM (active)	0.483 µM (active)	1.19 µM (inactive)
CCOC(=O)/C(=C\NC(=S)Nc1ccc(OCC)cc1)C(=O)c1ccccc1	> 100 µM (inactive)	> 100 µM (inactive)	> 100 µM (inactive)	> 100 µM (inactive)	> 100 µM (inactive)	> 100 µM (inactive)	> 100 µM (inactive)	> 100 µM (inactive)	79.8 µM (inactive)	> 100 µM (inactive)	> 100 µM (inactive)	> 100 µM (inactive)	> 100 µM (inactive)	> 100 µM (inactive)		> 100 µM (inactive)	> 100 µM (inactive)	> 100 µM (inactive)	> 100 µM (inactive)	> 100 µM (inactive)
O=C(NN1C(=O)C(Cl)C1c1ccc(Cl)cc1)c1c(Cl)c(Cl)c(Cl)c(Cl)c1-c1nc2ccccc2[nH]1 (centres undefined)	26.4 µM (inactive)	3.61 µM (inactive)	12.7 µM (inactive)	20.1 µM (inactive)	7.33 µM (inactive)	22.1 µM (inactive)	13.8 µM (inactive)	33 µM (inactive)			2.23 µM (inactive)	32.4 µM (inactive)	26.4 µM (inactive)	16.6 µM (inactive)			25.2 µM (inactive)	15.7 µM (inactive)	40.2 µM (inactive)	42.7 µM (inactive)
O=C1C/C(=C\O)C(=O)c2ccccc2N1	> 100 µM (inactive)	> 100 µM (inactive)	> 100 µM (inactive)	> 100 µM (inactive)	> 100 µM (inactive)	> 100 µM (inactive)	> 100 µM (inactive)	> 100 µM (inactive)	> 100 µM (inactive)		> 100 µM (inactive)	> 100 µM (inactive)	> 100 µM (inactive)	> 100 µM (inactive)	> 100 µM (inactive)	> 100 µM (inactive)	> 100 µM (inactive)	> 100 µM (inactive)	> 100 µM (inactive)	> 100 µM (inactive)
CCOc1cc2c(cc1O)CC[C@@H]1[C@@H]2CC[C@]2(C)[C@@H](O)CC[C@@H]12	0.0378 µM (active)	1.18 µM (inactive)	0.0287 µM (active)	0.0112 µM (active)	0.0401 µM (active)	0.423 µM (active)	< 0.0117 µM (active)	0.0173 µM (active)	12.4 µM (inactive)	0.0252 µM (active)	0.0387 µM (active)	0.0158 µM (active)	0.0188 µM (active)	< 0.0192 µM (active)		0.0803 µM (active)	< 0.01 µM (active)	0.019 µM (active)	0.0447 µM (active)	0.138 µM (active)
C=C(C)C#CC(O)(C(=O)OC1CCN(C)CC1)C(C)C (centres undefined)	> 100 µM (inactive)	> 100 µM (inactive)	> 100 µM (inactive)	> 100 µM (inactive)	> 100 µM (inactive)	> 100 µM (inactive)	> 100 µM (inactive)	29.4 µM (inactive)		> 100 µM (inactive)	> 100 µM (inactive)	> 100 µM (inactive)	> 100 µM (inactive)	> 100 µM (inactive)	> 100 µM (inactive)	> 100 µM (inactive)	> 100 µM (inactive)	> 100 µM (inactive)	> 100 µM (inactive)	> 100 µM (inactive)
C/C(=N\NC(=S)N1CCCCCC1)c1cccc2cccnc12	1.13 µM (inactive)	1.86 µM (inactive)	0.984 µM (active)	1.71 µM (inactive)	0.134 µM (active)	0.589 µM (active)	0.193 µM (active)	1.03 µM (active)		0.109 µM (active)	> 26.4 µM (inactive)	0.845 µM (active)		< 0.01 µM (active)	2.48 µM (inactive)	0.839 µM (active)	2.58 µM (inactive)		1.15 µM (inactive)	3.77 µM (inactive)
O=CN(O)CC(=O)O	> 100 µM (inactive)	> 100 µM (inactive)	> 100 µM (inactive)	> 100 µM (inactive)	> 100 µM (inactive)	> 100 µM (inactive)		> 100 µM (inactive)	> 100 µM (inactive)	> 100 µM (inactive)	> 100 µM (inactive)	> 100 µM (inactive)	> 100 µM (inactive)	> 100 µM (inactive)	> 100 µM (inactive)	> 100 µM (inactive)	> 100 µM (inactive)	> 100 µM (inactive)	> 100 µM (inactive)	> 100 µM (inactive)
CC(=O)N1CCN(CCCCN2c3ccccc3Sc3cc(N=[N+]=[N-])ccc32)CC1	16.1 µM (inactive)	15.2 µM (inactive)	14 µM (inactive)	15.6 µM (inactive)	8.47 µM (inactive)	17.6 µM (inactive)	13 µM (inactive)	12.6 µM (inactive)		10.5 µM (inactive)	9.1 µM (inactive)	17.4 µM (inactive)		9.06 µM (inactive)	17.4 µM (inactive)	14.4 µM (inactive)	24.5 µM (inactive)	2.69 µM (inactive)	14.3 µM (inactive)	
NC(=O)c1nnsc1NC=O	> 100 µM (inactive)	> 100 µM (inactive)	> 100 µM (inactive)	> 100 µM (inactive)	> 100 µM (inactive)	> 100 µM (inactive)	> 100 µM (inactive)	> 100 µM (inactive)		> 100 µM (inactive)	> 100 µM (inactive)		> 100 µM (inactive)	> 100 µM (inactive)		> 100 µM (inactive)	> 100 µM (inactive)	> 100 µM (inactive)	> 100 µM (inactive)	> 100 µM (inactive)
